# Assays:
# p-IRAK1 (T209) = molecular target: T1, p-IRAK1 (T209) (Homo sapiens, UniProt P51617); assay: Western blot of p-IRAK1 in immunoprecipitated IRAK1; type: cell-based
# T1 construct: The whole cell lysate were extracted with the NE-PER kit (Pierce Biotechnology) and subjected to immunoprecipitation using 2 μg total-IRAK1 antibody; endogenous in cells; host or cells: TNBC cell lines (BT549, MB436, MB468, MDA231, MDA231-LM2, SUM159 and paclitaxel-resistant sublines)
# Protocol: (§1) Western Blotting was performed as described previously (8). IRAK1 (Cat no: #4359), IRAK4 (Cat no.: 4363), cleaved PARP (Cat no.: #9541), p38 MAPK (Cat no.: #9212), phospho-p38 MAPK (T180/Y182) (Cat no.: #9211), phospho-NF-KappaB p65 (S536) (Cat no. #3031) were purchased from Cell Signaling (Danvers, Mass.). Phospho-IRAK1 (T209) antibody was purchased from Assay Biotech (Sunnyvale, Calif., Cat no.: A1074) and phospho-IRAK1 (S376) antibody from Genetex (Irvine, Calif., Cat no.: GTX50994). MCL-1 antibody was purchased from Santa Cruz Biotechnology (Santa Cruz, Calif., Cat no.: sc-819). Actin was purchased from Sigma-Aldrich (St Louis, Mo., Cat no.: A5441). Detection of bands was performed with the ChemiDoc™ MP Imaging Systems (Bio-Rad, Hercules, Calif.) and bands were subjected to further densitometric analysis with Image Lab software (Version 4.1, Bio-rad, Hercules, Calif.).
# Co-IP was performed as described previously (9). The whole cell lysate were extracted with the NE-PER kit (Pierce Biotechnology) and subjected to immunoprecipitation using 2 μg total-IRAK1 antibody (Santa Cruz Biotech, Santa Cruz, Calif., Cat no.: sc-7883). The precipitated protein complex was captured using protein A-Agarose beads (Roche) and extensively washed with the washing buffer (50 mM Tris-HCl, 150 mM NaCl, 0.1% triton). The precipitated proteins were dissolved in SDS sample buffer along with 3 mM DTT, and subjected to immunoblotting analysis. Phospho-IRAK1 (T209) (Assay Biotechnology, Sunnyvale, Calif., Cat no.: A1074) was used for detection.
# [1] = test system: BT549, MB436, MB468, MDA231 and MDA231-LM2 cells; assay: 3D Matrigel growth of TNBC cells; type: cell-based; conditions: 5 μM IRAK-inh
# Protocol: 8-well chamber slides (Falcon, cat: 354656, Falcon) were precoated with 7.6 mg/mL growth factor-reduced Matrigel (Falcon, cat: 354230, Falcon) for 30 min at 37° C. Approximately 5×10^3 for MDA231, 1×10^4 for MB436 and MB468, 1.5×10^4 cells for BT549 with indicated treatments were seeded in each well with DMEM containing 10% (vol/vol) FBS and 150 μg/mL Matrigel. Medium were replenished every 3 days and cell growth was monitored every 3 days by imaging over duration of 10-14 days.
# [2] = test system: MDA231 and SUM159 parental and Paclitaxel-resistant sublines (PR); assay: Cell viability of parental and Paclitaxel-resistant sublines, combination treatment; type: cell-based
# Protocol: For cell proliferation assay, the optimal cell seeding was first determined empirically for all cell lines by examining the growth of a wide range of seeding densities in a 96-well format to identify conditions that permitted proliferation for 7 days. Cells were then plated at the optimal seeding density 24 h before siRNA or drug treatment in triplicate. Plates were incubated for 7 days at 37° C. in 5% CO2. Cells were then lysed with CellTiter-Glo (CTG) (Promega, Madison, Wis.) and chemiluminescent signal was detected with a microplate reader on Day 0, 1, 3, 5 and 7. In addition, an untreated plate of cells was harvested at the time of drug or siRNA addition (T0) to quantify the starting number of cells. CTG values obtained after the 7 day treatment were expressed as percentages of the T0 value and plotted against time of treatment.
# [3] = test system: IL-6, IL-8 and CXCL1 secretion; assay: ELISA of cytokine secretion; type: cell-based
# Protocol: IL-6, IL-8 and CXCL1 levels were assessed using ELISA assay kit (Boster Bio, Pleasanton, Calif.). Supernates of the mammosphere formation assay were collected after 10 days in culture. 1:50 dilution was performed on the supernates before quantifying the amount of cytokines according to the manufacturer's protocol. For cytokine antibody array, supernates collected from the NS or shIRAK1 MB436 mammospheres after 10 days in culture were used directly without further dilution. Semi-quantitative detection of 120 human cytokines and chemokines in the supernates were performed using the RayBio® C-series Human Cytokine Antibody Array C1000 (RayBiotech, Inc., Norcross, GS, Cat no.: #AAH-CYT-1000-2) as per manufacturer's instructions. Detection of dots was performed with the ChemiDoc™ MP Imaging Systems (Bio-Rad, Hercules, Calif.) and the intensity of dots were quantified by densitometric analysis using the ImageJ software. The raw numerical densitometry data is extracted and subjected to background subtraction before normalizing the signal for each cytokines against the Positive Control signals in each cytokine array.
# MDA231-LM2 cells = assay: Mammary fat pad MDA231-LM2 xenograft, lung metastasis by bioluminescence imaging; type: in vivo, NOD/SCID mice; conditions: for lung metastasis: IRAK-inh 4 mg/kg, qd, ip, 14 days, started 7 days before primary tumor removal
# [4] = test system: SUM159-PR and MDA231-PR cells; assay: Apoptosis by FACS analysis of Sub-G1 cells; type: cell-based; conditions: Paclitaxel-resistant cells
# Protocol: Cell cycle analysis was done by DNA content quantification to quantify the sub-G1 population which is reflective of the extent of cell death. Briefly, the cells were fixed with 70% ethanol and stained with propidium iodide (50 μg/ml) staining. The stained cells were analyzed by FACScalibur (BD Bioscience) and quantified by using CellQuest software (BD bioscience).
# [5] = test system: non-cancerous MCF10A and HMLE cells; assay: 3D Matrigel growth of non-cancerous cells; type: cell-based; conditions: 5 uM IRAK-inh, one week
# [6] = test system: BT549, MB436, MB468, MDA231 and MDA231-LM2 cells; assay: Mammosphere formation assay; type: cell-based; conditions: 5 μM IRAK-inh
# Protocol: Active growing cells were treated with 0.05% trypsin for 10 minutes then passed through […] cell strainer to achieve single cell suspension. Cells were plated (MDA231: 1×10^4; MB436: 3×10^4; MB468: 4×10^4 cells/well, BT549: 3×10^4, MDA231-LM2: 3×10^4) seeded in 6-well ultra-low attachment plates (Corning, Corning, N.Y., cat: CLS3471) in Mammocult medium (Stem cell Technologies, Vancouver, BC, Canada), supplemented with fresh hydrocortisone (0.51 μg/ml) and heparin (1:500). Tumorspheres were cultured for 7 days prior to being counted and photographed. Imaging and quantification were done using GelCount™ apparatus and associated software (Oxford Optronix, Abingdon, UK). For serial passages of tumorsphere formation assay, the spheres were collected by gentle centrifugation, dissociated to single cells for passaging tumorspheres every 14 days and counted. Tumorspheres were photographed and quantified 7-12 days later using a GelCount Colony Counter after staining with INT.
# [7] = test system: p38-MCL-1 signaling in SUM159-PR cells; assay: Western blot of p-p38, MCL-1 and cleaved PARP; type: cell-based; conditions: inhibitor with Paclitaxel
# Protocol: as §1
# IRAK1 = IRAK1 (Homo sapiens, UniProt P51617); conditions: recently shown in Myelodysplastic Syndrome (ref 20); cited from earlier work
# Chain of IRAK1 (P51617 whole entry, species assumed): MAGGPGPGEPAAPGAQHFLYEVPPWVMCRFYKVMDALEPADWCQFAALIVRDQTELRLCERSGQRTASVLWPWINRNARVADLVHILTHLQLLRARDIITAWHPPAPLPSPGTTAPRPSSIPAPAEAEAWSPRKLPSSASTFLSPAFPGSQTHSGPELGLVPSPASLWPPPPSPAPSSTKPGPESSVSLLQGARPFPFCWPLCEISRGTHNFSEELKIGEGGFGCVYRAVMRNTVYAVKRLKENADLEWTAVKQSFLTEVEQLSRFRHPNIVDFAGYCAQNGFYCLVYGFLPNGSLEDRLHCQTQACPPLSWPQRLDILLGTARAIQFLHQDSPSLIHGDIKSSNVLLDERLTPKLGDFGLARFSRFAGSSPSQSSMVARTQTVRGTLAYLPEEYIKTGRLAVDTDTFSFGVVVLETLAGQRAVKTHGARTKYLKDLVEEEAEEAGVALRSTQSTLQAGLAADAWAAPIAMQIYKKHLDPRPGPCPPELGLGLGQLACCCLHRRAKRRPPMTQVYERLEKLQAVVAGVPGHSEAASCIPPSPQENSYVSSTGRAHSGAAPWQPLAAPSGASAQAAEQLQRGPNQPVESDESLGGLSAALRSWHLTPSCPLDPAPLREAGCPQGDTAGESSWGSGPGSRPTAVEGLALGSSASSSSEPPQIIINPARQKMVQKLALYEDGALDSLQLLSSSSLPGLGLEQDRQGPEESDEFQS
# T1 sequence (P51617 whole entry): as the sequence (P51617 whole entry, species assumed) above
compound,measurement,setting,value
O=C(Nc1nc2ccccc2n1CCN1CCOCC1)c1cccc([N+](=O)[O-])c1 [IRAK-inh],p-IRAK1 in TNBC cells,p-IRAK1 (T209); IRAK-inh 5 μM,effectively abolished the p-IRAK1
same,IL-1β-induced p-IRAK1,"p-IRAK1 (T209); MB436 cells, recombinant IL-1β, IRAK-inh 5 uM",abrogated
same,3D Matrigel growth,"[1]; BT549, MB436 and MB468 cells",marked inhibition
same,3D Matrigel growth,"[1]; MDA231-LM2 cells, 7 days",impaired
same,"cell viability, combined with sub-toxic Paclitaxel","[2]; both Paclitaxel-resistant cell lines (MDA231-PR, SUM159-PR), 5 μM IRAK-inh",dramatic loss of cell viability
same,cell death in combination with paclitaxel,"[2]; paclitaxel-resistant MDA231 cells, IRAK-inh 5 μM",dramatic cell death
same,"cell viability, inhibitor on its own","[2]; paclitaxel-resistant MDA231 cells, IRAK-inh 5 μM alone",no effect
same,IL-8 and CXCL1 secretion,"[3]; IRAK-inh-sensitive TNBC cells, 5 μM IRAK-inh",strong reduction
same,"secretion of IL-6, IL-8 and CXCL1","[3]; Paclitaxel-resistant cells, IRAK1-inh plus Paclitaxel",reduced secretion
same,lung metastasis,MDA231-LM2 cells; listed as IRAK1-inh,markedly reduced
same,lung metastasis,MDA231-LM2 cells; listed as IRAK1-inn,effectively blocked
same,survival of mice carrying TNBC metastasis,MDA231-LM2 cells; IRAK-inh treatment,extended the survival
same,"apoptosis, combined with Paclitaxel",[4],massive apoptosis
same,3D Matrigel growth / morphology,[5],no effect
same,mammosphere growth,"[6]; BT549, MB436 and MB468 cells",marked inhibition
same,mammosphere growth,"[6]; MDA231-LM2 cells, 7 days",impaired
same,PARP cleavage,[7],increased PARP cleavage
same,p-p38 and MCL-1 expression,[7],decrease
same,activity against IRAK1,IRAK1,potent activity against IRAK1
